Test results published in US5952321A, “Substituted azetidinones as anti-inflammatory and antidegenerative agents” (Merck & Co., Inc., priority 1996, dated 1999).
Read-outs that look alike come from different tables or passages of the source.

Biological target: T1, Human Polymorphonuclear Leukocyte Elastase (Homo sapiens, UniProt P08246)
T1 sequence (P08246 30-267): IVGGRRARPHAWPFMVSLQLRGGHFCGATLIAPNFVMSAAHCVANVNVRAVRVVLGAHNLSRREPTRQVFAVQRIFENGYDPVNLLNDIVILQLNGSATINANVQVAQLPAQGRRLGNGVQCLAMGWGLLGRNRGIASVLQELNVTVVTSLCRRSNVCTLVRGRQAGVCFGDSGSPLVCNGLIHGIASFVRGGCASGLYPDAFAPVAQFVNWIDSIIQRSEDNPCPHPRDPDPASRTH
Experiment: Inhibition of human polymorphonuclear leukocyte elastase via hydrolysis of Boc-AAPAN or Boc-AAPVN
Assay type: biochemical
Conditions: second order rate constant for inactivation of the enzyme, read-out: Kobs /[I]
Protocol: Enzyme Assays for the Inhibition of Human Polymorphonuclear Leukocyte Elastase Via Hydrolysis of N-t-Boc-alanyl-alanyl-prolylalanine-p-nitroanilide (Boc-AAPAN) or […] (Boc-AAPVN) Reagent:
0.05M TES (N-tris[hydroxymethyl]methyl-2-amino-ethanesulfonic acid) Buffer, pH 7.5.
0.2 mM Boc-AAPAN or Boc-AAPVN.
To prepare substrate, the solid was first dissolved in 10.0 ml DMSO. Buffer at pH 7.5 was then added to a final volume of 100 ml.
Crude extract of human polymorphonuclear leukocytes (PMN) containing elastase activity.
Inhibitors (azetidinones) to be tested dissolved in DMSO just before use.
To 1.0 ml of 0.2 mM Boc-AAPAN in a cuvette, 0.01-0.1 ml of DMSO with or without inhibitor was added. After mixing, a measurement was taken at 410 mμ to detect any spontaneous hydrolysis due to presence of test compound. 0.05 Milliliters of PMN extract was then added and the ΔOD/min at 410 mμ was measured and recorded. Beckman model 35 spectrophotometer was used.
Results in Tables I to III were reported as ID50, effective dosage in micrograms per milliliter (μg/ml) for 50% inhibition of the enzyme activity 2 minutes after zero time.
Results were also expressed as Ki, the micromolar concentration of the inhibitor (μM) giving 50% of the control enzyme activity; or as ^k obs/I which is the second order rate constant in per mole per second for inactivation of the enzyme.
The elastase activity in the crude PMN extract may vary from one preparation to another. A control of each new batch is run, and the volume added in the assay procedure is adjusted according to activity.

kinact/KI (pH 7.5, Table I) | kinact/KI (pH 7.5, Table II) | SMILES
1.55e+06 M⁻¹ s⁻¹ | – | CCC[C@@H](NC(=O)N1C(=O)C(CC)(CC)[C@@H]1Oc1ccc(CN2CCN(C(=O)N(C)C)CC2)cc1)c1ccc(C)cc1 [(4S)-3,3-Diethyl-1-[(R)-α-n-propyl-(4-methyl)benzylaminocarbonyl]-4-[(4-((4-dimethylaminocarbonyl)piperazin-1-yl)methyl)phenoxy]azetidin-2-one]
950000 M⁻¹ s⁻¹ | – | CCC[C@@H](NC(=O)N1C(=O)C(CC)(CC)[C@@H]1Oc1ccc(CN2CCC[C@H]2CO)cc1)c1ccc(C)cc1 [R4+R5=--CH2 CH2 CH2 CH(S--CH2 OH); R6=H]
1.2e+06 M⁻¹ s⁻¹ | – | CCC[C@@H](NC(=O)N1C(=O)C(CC)(CC)[C@@H]1Oc1ccc(CN2CCC(O)C2)cc1)c1ccc(C)cc1 (some centres unmarked) [R4+R5=--CH2 CH2 CH(OH)CH2 --; R6=H]
1.15e+06 M⁻¹ s⁻¹ | – | CCC[C@@H](NC(=O)N1C(=O)C(CC)(CC)[C@@H]1Oc1ccc(CN2CCC(O)CC2)cc1)c1ccc(C)cc1 [R4+R5=--CH2 CH2 CH(OH)CH2 CH2 --; R6=H]
765000 M⁻¹ s⁻¹ | – | CCC[C@@H](NC(=O)N1C(=O)C(CC)(CC)[C@@H]1Oc1ccc(CN2CCC(OC)C2)cc1)c1ccc(C)cc1 (some centres unmarked) [R4+R5=--CH2 CH2 CH(OMe)CH2 --; R6=H]
1e+06 M⁻¹ s⁻¹ | – | CCC[C@@H](NC(=O)N1C(=O)C(CC)(CC)[C@@H]1Oc1ccc(C(C)N2CCC(OC)C2)cc1)c1ccc(C)cc1 (some centres unmarked) [R4+R5=--CH2 CH2 CH(OMe)CH2 --; R6=Me]
950000 M⁻¹ s⁻¹ | – | CCC[C@@H](NC(=O)N1C(=O)C(CC)(CC)[C@@H]1Oc1ccc(CN2CCN(C(C)=O)CC2)cc1)c1ccc(C)cc1 [R4+R5=--CH2 CH2 N(Ac)CH2 CH2 --; R6=H]
1.7e+06 M⁻¹ s⁻¹ | – | CCC[C@@H](NC(=O)N1C(=O)C(CC)(CC)[C@@H]1Oc1ccc(CN2CCN(C(=O)c3ccccc3)CC2)cc1)c1ccc(C)cc1 [R4+R5=--CH2 CH2 N(Bz)CH2 CH2 --; R6=H]
1.2e+06 M⁻¹ s⁻¹ | – | CCC[C@@H](NC(=O)N1C(=O)C(CC)(CC)[C@@H]1Oc1ccc(CN2CCN(C(C)C)CC2)cc1)c1ccc(C)cc1 [R4+R5=--CH2 CH2 N(i-Pr)CH2 CH2 --; R6=H]
820000 M⁻¹ s⁻¹ | – | CCC[C@@H](NC(=O)N1C(=O)C(CC)(CC)[C@@H]1Oc1ccc(CN2CCOCC2)cc1)c1ccc(C)cc1 [R4+R5=--CH2 CH2 OCH2 CH2 --; R6=H]
460000 M⁻¹ s⁻¹ | – | CCC[C@@H](NC(=O)N1C(=O)C(CC)(CC)[C@@H]1Oc1ccc(C(C)N2CCOCC2)cc1)c1ccc(C)cc1 (some centres unmarked) [R4+R5=--CH2 CH2 OCH2 CH2 --; R6=Me]
– | 600000 M⁻¹ s⁻¹ | CCC[C@@H](NC(=O)N1C(=O)C(CC)(CC)[C@@H]1Oc1ccc(CCN2CCOCC2)cc1)c1ccc(C)cc1 [R4+R5=--CH2 CH2 OCH2 CH2 --; n=2, (4S)-3,3-Diethyl-1-[(R)-α-n-propyl-(4-methyl)benzylaminocarbonyl]-4-[(4-(2-(4-morpholino))ethyl)phenoxy]azetidin-2-one]
940000 M⁻¹ s⁻¹ | – | CCC[C@@H](NC(=O)N1C(=O)C(CC)(CC)[C@@H]1Oc1ccc(CN2CCSC2)cc1)c1ccc(C)cc1 [R4+R5=--CH2 CH2 SCH2 --; R6=H]
915000 M⁻¹ s⁻¹ | – | CCC[C@@H](NC(=O)N1C(=O)C(CC)(CC)[C@@H]1Oc1ccc(CN2CCSCC2)cc1)c1ccc(C)cc1 [R4+R5=--CH2 CH2 SCH2 CH2 --; R6=H]
980000 M⁻¹ s⁻¹ | – | CCC[C@@H](NC(=O)N1C(=O)C(CC)(CC)[C@@H]1Oc1ccc(CN2CC(C)NC(C)C2)cc1)c1ccc(C)cc1 (some centres unmarked) [R4+R5=--CH2 CHMeNCHMeCH2 --; R6=H]
2.25e+06 M⁻¹ s⁻¹ | – | CCC[C@@H](NC(=O)N1C(=O)C(CC)(CC)[C@@H]1Oc1ccc(Cn2ccnc2CC)cc1)c1ccc(C)cc1 [R4+R5=--CHCHNCEt--; R6=H]
1.6e+06 M⁻¹ s⁻¹ | – | CCC[C@@H](NC(=O)N1C(=O)C(CC)(CC)[C@@H]1Oc1ccc(Cn2ccnc2)cc1)c1ccc(C)cc1 [R4+R5=--CHCHNCH--; R6=H]
1.4e+06 M⁻¹ s⁻¹ | – | CCC[C@@H](NC(=O)N1C(=O)C(CC)(CC)[C@@H]1Oc1ccc(Cn2ccnc2C)cc1)c1ccc(C)cc1 [R4+R5=--CHCHNCMe--; R6=H]
1.15e+06 M⁻¹ s⁻¹ | – | CCC[C@@H](NC(=O)N1C(=O)C(CC)(CC)[C@@H]1Oc1ccc(CN2C(C)CCCC2C)cc1)c1ccc(C)cc1 (some centres unmarked) [R4+R5=--CHMeCH2 CH2 CH2 CHMe--; R6=H]

kinact/KI (pH 7.5, Table I) | kinact/KI (pH 7.5, Table II) | SMILES
670000 M⁻¹ s⁻¹ | – | CCC[C@@H](NC(=O)N1C(=O)C(CC)(CC)[C@@H]1Oc1ccc(CN2C(C)CCC2C)cc1)c1ccc(C)cc1 (some centres unmarked) [R4+R5=--CHMeCH2 CH2 CHMe--; R6=H]
1.1e+06 M⁻¹ s⁻¹ | – | CCC[C@@H](NC(=O)N1C(=O)C(CC)(CC)[C@@H]1Oc1ccc(C2CCCN2CCOCC)cc1)c1ccc(C)cc1 (some centres unmarked) [R4=CH2 CH2 OEt; R5+R6=--CH2 CH2 CH2 --]
820000 M⁻¹ s⁻¹ | – | CCC[C@@H](NC(=O)N1C(=O)C(CC)(CC)[C@@H]1Oc1ccc(CN(CCOC)CCOC)cc1)c1ccc(C)cc1 [R4=CH2 CH2 OMe; R5=CH2 CH2 OMe; R6=H]
850000 M⁻¹ s⁻¹ | – | CCC[C@@H](NC(=O)N1C(=O)C(CC)(CC)[C@@H]1Oc1ccc(CN(CC)CCNC(C)=O)cc1)c1ccc(C)cc1 [R4=Et; R5=CH2 CH2 NHAc; R6=H]
1.3e+06 M⁻¹ s⁻¹ | – | CCC[C@@H](NC(=O)N1C(=O)C(CC)(CC)[C@@H]1Oc1ccc(CN(CC)CCOCCOC)cc1)c1ccc(C)cc1 [R4=Et; R5=CH2 CH2 OCH2 CH2 OMe; R6=H]
1.4e+06 M⁻¹ s⁻¹ | – | CCC[C@@H](NC(=O)N1C(=O)C(CC)(CC)[C@@H]1Oc1ccc(CN(CC)CCOC(=O)N(C)C)cc1)c1ccc(C)cc1 [R4=Et; R5=CH2 CH2 OCONMe2; R6=H]
565000 M⁻¹ s⁻¹ | – | CCC[C@@H](NC(=O)N1C(=O)C(CC)(CC)[C@@H]1Oc1ccc(CN(CC)CCOC)cc1)c1ccc(C)cc1 [R4=Et; R5=CH2 CH2 OMe; R6=H, (4S)-3,3-Diethyl-1-[(R)-α-n-propyl-(4-methyl)benzyl-aminocarbonyl]-4-[(4-(2-methoxyethyl)ethylamino-methyl)phenoxy]azetidin-2-one]
600000 M⁻¹ s⁻¹ | – | CCC[C@@H](NC(=O)N1C(=O)C(CC)(CC)[C@@H]1Oc1ccc(C(C)N(CC)CCOC)cc1)c1ccc(C)cc1 (some centres unmarked) [R4=Et; R5=CH2 CH2 OMe; R6=Me]
690000 M⁻¹ s⁻¹ | – | CCC[C@@H](NC(=O)N1C(=O)C(CC)(CC)[C@@H]1Oc1ccc(CN(CC)CCSC)cc1)c1ccc(C)cc1 [R4=Et; R5=CH2 CH2 SMe; R6=H]
670000 M⁻¹ s⁻¹ | – | CCC[C@@H](NC(=O)N1C(=O)C(CC)(CC)[C@@H]1Oc1ccc(CN(CC)C(C)COC)cc1)c1ccc(C)cc1 (some centres unmarked) [R4=Et; R5=CH(Me)CH2 OMe; R6=H]
– | 540000 M⁻¹ s⁻¹ | CCC[C@@H](NC(=O)N1C(=O)C(CC)(CC)[C@@H]1Oc1ccc(CCCN(CC)CC)cc1)c1ccc(C)cc1 [R4=Et; R5=Et; n=3]
750000 M⁻¹ s⁻¹ | – | CCC[C@@H](NC(=O)N1C(=O)C(CC)(CC)[C@@H]1Oc1ccc(CNC(C)=O)cc1)c1ccc(C)cc1 [R4=H; R5=Ac; R6=H, (4S)-3,3-Diethyl-1-[(R)-α-(n-propyl)-4-(methyl)benzylaminocarbonyl]-4-[(4-(N-acetyl)aminomethyl)phenoxy]azetidin-2-one]
660000 M⁻¹ s⁻¹ | – | CCC[C@@H](NC(=O)N1C(=O)C(CC)(CC)[C@@H]1Oc1ccc(C(C)NCCO)cc1)c1ccc(C)cc1 (some centres unmarked) [R4=H; R5=CH2 CH2 OH; R6=Me]
680000 M⁻¹ s⁻¹ | – | CCC[C@@H](NC(=O)N1C(=O)C(CC)(CC)[C@@H]1Oc1ccc(C(C)NCCOC)cc1)c1ccc(C)cc1 (some centres unmarked) [R4=H; R5=CH2 CH2 OMe; R6=Me]
850000 M⁻¹ s⁻¹ | – | CCC[C@@H](NC(=O)N1C(=O)C(CC)(CC)[C@@H]1Oc1ccc(CNC(=O)CCN(CC)CC)cc1)c1ccc(C)cc1 [R4=H; R5=COCH2 CH2 N Et2; R6=H]
1.4e+06 M⁻¹ s⁻¹ | – | CCC[C@@H](NC(=O)N1C(=O)C(CC)(CC)[C@@H]1Oc1ccc(CNC(=O)CN(C)Cc2ccccc2)cc1)c1ccc(C)cc1 [R4=H; R5=COCH2 N(Me)Bn; R6=H]
800000 M⁻¹ s⁻¹ | – | CCC[C@@H](NC(=O)N1C(=O)C(CC)(CC)[C@@H]1Oc1ccc(CNC(=O)CN(C)C)cc1)c1ccc(C)cc1 [R4=H; R5=COCH2 NMe2; R6=H, (4S)-3,3-Diethyl-1-[(R)-α-(n-propyl)-4-(methyl)benzyl-aminocarbonyl]-4-[(4-((N,N-dimethyl)aminomethylcarbonyl)aminomethyl)phenoxy]azetidin-2-one]
1.25e+06 M⁻¹ s⁻¹ | – | CCC[C@@H](NC(=O)N1C(=O)C(CC)(CC)[C@@H]1Oc1ccc(CNC(=O)Cc2cccnc2)cc1)c1ccc(C)cc1 [R4=H; R5=COCH2-3-pyridyl; R6=H, (4S)-3,3-Diethyl-1-[(R)-α-(n-propyl)-4-(methyl)benzylaminocarbonyl]-4-[(4-((3-pyridyl)methylcarbonyl)aminomethyl)phenoxy]azetidin-2-one]
850000 M⁻¹ s⁻¹ | – | CCC[C@@H](NC(=O)N1C(=O)C(CC)(CC)[C@@H]1Oc1ccc(CNC(=O)Cc2c[nH]cn2)cc1)c1ccc(C)cc1 [R4=H; R5=COCH2-4-imidazolyl; R6=H, (4S)-3,3-Diethyl-1-[(R)-α-(n-propyl)-4-(methyl)benzylaminocarbonyl]-4-[(4-((4-imidazolyl)methylcarbonyl)aminomethyl)phenoxy]azetidin-2-one]
